Data published in patent publication US4360511A, “Amines useful as brain imaging agents” (Medi-Physics, Inc., priority 1980, dated 1982).
Read-outs that look alike come from different tables or passages of the source.

Key:
[1] = Friedman et al, July 1978; cited from earlier work
[2] = Bioassay: distribution of I-123-labeled compounds in organs of rats after tail vein injection (percent dose/gram, brain/blood ratio); type: in vivo, Female Sprague-Dawley rats; conditions: for Brain/Blood Ratio 5 min. / tissue uptake at 5 min: 5 minutes post-injection; for tissue uptake at 5 min / tissue uptake at 1 h: rat, iv, 0.05 to 1.0 mCi, two rats; for Brain/Blood Ratio 60 min. / tissue uptake at 1 h: 60 minutes post-injection
Procedure: Female Sprague-Dawley rats weighing approximately 150 g were anesthetized with sodium pentobarbital and were injected in a tail vein with from 0.05 to 1.0 mCi (in a volume of 0.2 to 0.5 ml) of the I-123-labeled compound. Two specimens were utilized for each test.
Two animals each were sacrificed at 5 minutes and 60 minutes post-injection, the tails discarded and the amount of activity in various organs determined. Each organ was counted at a standardized geometry with a sodium iodide crystal scintillation counter adjusted for the 159 keV emission of I-123. The organs were also weighed to one thousandth of a gram and the activity calculated as a percent of administered dose per gram of organ weight.
The ratio of brain-to-blood activity was calculated as a percent of administered dose per gram.

[3] = Robinson et al, J Nucl Med 17, p 1093 (1976); cited from earlier work
[4] = blood, read-out: Percent Dose/Gram Blood 5 min.
[5] = brain, read-out: Percent Dose/Gram Brain 5 min.
[6] = heart, read-out: Percent Dose/Gram Heart 5 min.
[7] = blood, read-out: Percent Dose/Gram Blood 60 min.
[8] = brain, read-out: Percent Dose/Gram Brain 60 min.
[9] = heart, read-out: Percent Dose/Gram Heart 60 min.

| Molecule | activity carried across the blood/brain barrier [1] | decarboxylation in vivo [1] | Brain/Blood Ratio 5 min. [2] | tissue uptake at 5 min [2, 4] | tissue uptake at 5 min [2, 5] | tissue uptake at 5 min [2, 6] | Brain/Blood Ratio 60 min. [2] | tissue uptake at 1 h [2, 7] | tissue uptake at 1 h [2, 8] | tissue uptake at 1 h [2, 9] | concentration in the brain [3] | in vivo deiodination [3] |
| --- | --- | --- | --- | --- | --- | --- | --- | --- | --- | --- | --- | --- |
| 5-hydroxytryptophan | carried some activity across the blood/brain barrier | decarboxylated in vivo | – | – | – | – | – | – | – | – | – | – |
| CC(C)N(CCc1ccccc1)CCc1ccccc1[123I] [I--123-N--β-phenethyl-N--isopropyl-o-iodo-β-phenethylamine] | – | – | 1.83 | 0.29 %ID/g | 0.53 %ID/g | 2.01 %ID/g | – | – | – | – | – | – |
| [123I]c1ccccc1CCNCCc1ccccc1 [I--123-N--β-phenethyl-o-iodo-β-phenethylamine] | – | – | 4.77 | 0.16 %ID/g | 0.74 %ID/g | 1.56 %ID/g | 5.17 | 0.09 %ID/g | 0.48 %ID/g | 0.26 %ID/g | – | – |
| [123I]c1ccccc1NCCc1ccccc1 [I--123-N--β-phenethyl-o-iodoaniline] | – | – | 1.24 | 1.04 %ID/g | 1.29 %ID/g | 1.16 %ID/g | 0.33 | 0.48 %ID/g | 0.16 %ID/g | 0.33 %ID/g | – | – |
| [123I]c1ccccc1CNCCc1ccccc1 [I--123-N--β-phenethyl-o-iodobenzylamine] | – | – | 2.52 | 0.27 %ID/g | 0.68 %ID/g | 0.56 %ID/g | 0.96 | 0.14 %ID/g | 0.14 %ID/g | 0.15 %ID/g | – | – |
| [123I]c1ccc(NCCc2ccccc2)cc1 [I--123-N--β-phenethyl-p-iodoaniline] | – | – | 1.06 | 0.88 %ID/g | 0.93 %ID/g | 1.38 %ID/g | – | – | – | – | – | – |
| CC(C)N[C@H](C)Cc1ccc([123I])cc1 [I--123-R--N--isopropyl-p-iodoamphetamine, I-123-R-N-isopropyl-p-iodoamphetamine] | – | – | 12.60 | 0.14 %ID/g | 1.57 %ID/g | 1.78 %ID/g | 20.70 | 0.11 %ID/g | 2.14 %ID/g | 0.87 %ID/g | – | – |
| C[C@@H](N)Cc1ccc([123I])cc1 [I--123-R--p-iodoamphetamine, I-123-R-p-iodoamphetamine] | – | – | 10.60 | 0.15 %ID/g | 1.38 %ID/g | 2.43 %ID/g | 18.50 | 0.12 %ID/g | 2.07 %ID/g | 1.09 %ID/g | – | – |
| CC(C)N[C@@H](C)Cc1ccc([123I])cc1 [I--123-S--N--isopropyl-p-iodoamphetamine, I-123-S-N-isopropyl-p-iodoamphetamine] | – | – | 12.80 | 0.11 %ID/g | 1.32 %ID/g | 1.28 %ID/g | 15.40 | 0.13 %ID/g | 1.93 %ID/g | 0.85 %ID/g | – | – |
| C[C@H](N)Cc1ccc([123I])cc1 [I--123-S--p-iodoamphetamine, I-123-S-p-iodoamphetamine] | – | – | 7.04 | 0.17 %ID/g | 1.22 %ID/g | 1.52 %ID/g | 11.30 | 0.17 %ID/g | 1.88 %ID/g | 0.86 %ID/g | – | – |
| Cc1c([123I])c(=O)n(-c2ccccc2)n1C [I--123-iodoantipyrine, I-123 labeled 4-iodoantipyrine, reference compound] | – | – | – | – | – | – | – | 0.94 %ID/g | 0.17 %ID/g | 0.53 %ID/g | suboptimal concentration in the brain | rapid in vivo deiodination |
| NCCc1ccccc1[123I] [I--123-o-iodo-β-phenethylamine] | – | – | 0.49 | 1.43 %ID/g | 0.7 %ID/g | 1.22 %ID/g | – | – | – | – | – | – |
| Nc1ccccc1[123I] [I--123-o-iodoaniline] | – | – | 0.28 | 1.7 %ID/g | 0.47 %ID/g | 1.02 %ID/g | 0.07 | 0.44 %ID/g | 0.03 %ID/g | 0.17 %ID/g | – | – |
| Nc1ccc([123I])cc1 [I--123-p-iodoaniline] | – | – | 1.12 | 0.97 %ID/g | 1.09 %ID/g | 1.11 %ID/g | 1.00 | 0.8 %ID/g | 0.8 %ID/g | 0.8 %ID/g | – | – |
| NC(=O)C(Nc1ccc([123I])cc1)c1ccccc1 (stereo not drawn) [I--123-α-(p-iodoanilino)phenylacetamide] | – | – | 1.30 | 0.71 %ID/g | 0.92 %ID/g | 1.42 %ID/g | – | – | – | – | – | – |
| N#CC(N)c1ccccc1[123I] (stereo not drawn) [I--123-α-amino-o-iodophenylacetonitrile] | – | – | 1.74 | 0.34 %ID/g | 0.58 %ID/g | 0.86 %ID/g | – | – | – | – | – | – |
| N#CC(Nc1ccccc1)c1ccccc1[123I] (stereo not drawn) [I--123-α-anilino-o-iodophenylacetonitrile] | – | – | 4.68 | 0.17 %ID/g | 0.8 %ID/g | 0.9 %ID/g | 1.41 | 0.1 %ID/g | 0.14 %ID/g | 0.24 %ID/g | – | – |
